Test results: ChEMBL document CHEMBL4813981, “Synthesis and in vitro antibacterial activity of new aminothiazole-oximepiperidone cephalosporins” (2021)
In brackets after ≈: the same amount, converted by molar mass.

What was measured:
Acinetobacter baumannii [1] = experiment: Antibacterial activity against Multidrug resistant Acinetobacter baumannii AR 15-3 assessed as reduction in bacterial growth; format: functional
Klebsiella pneumoniae [2] = experiment: Antibacterial activity against Multidrug resistant Klebsiella pneumoniae KR 15-1 assessed as reduction in bacterial growth in the presence of Avibactam; format: functional
Klebsiella pneumoniae [3] = experiment: Antibacterial activity against Multidrug resistant Klebsiella pneumoniae KR 15-3 assessed as reduction in bacterial growth in the presence of Avibactam; format: functional
Acinetobacter baumannii [4] = experiment: Antibacterial activity against Carbapenem- resistant Acinetobacter baumannii 17-3 assessed as reduction in bacterial growth in the presence of Avibactam; format: functional
Klebsiella pneumoniae [5] = experiment: Antibacterial activity against Carbapenem- resistant Klebsiella pneumoniae KR 15-6 assessed as reduction in bacterial growth in the presence of Avibactam; format: functional
Klebsiella pneumoniae [6] = experiment: Antibacterial activity against Carbapenem- resistant Klebsiella pneumoniae KR 15-12 assessed as reduction in bacterial growth in the presence of Avibactam; format: functional
Klebsiella pneumoniae [7] = experiment: Antibacterial activity against Carbapenem- resistant Klebsiella pneumoniae KR 15-13 assessed as reduction in bacterial growth in the presence of Avibactam; format: functional
Klebsiella pneumoniae [8] = experiment: Antibacterial activity against ESBLs negative Carbapenem-sensitive Klebsiella pneumoniae 17-18 assessed as reduction in bacterial growth in the presence of Avibactam; format: functional
Escherichia coli [9] = experiment: Antibacterial activity against ESBLs positive Carbapenem-sensitive Escherichia coli 17-15 assessed as reduction in bacterial growth in the presence of Avibactam; format: functional
Pseudomonas aeruginosa [10] = experiment: Antibacterial activity against Carbapenem- sensitive Pseudomonas aeruginosa 17-9 assessed as reduction in bacterial growth in the presence of Avibactam; format: functional
Pseudomonas aeruginosa [11] = experiment: Antibacterial activity against Carbapenem- sensitive Pseudomonas aeruginosa 17-21 assessed as reduction in bacterial growth in the presence of Avibactam; format: functional
Pseudomonas aeruginosa [12] = experiment: Bactericidal activity against Carbapenem- resistant Pseudomonas aeruginosa 17-8 assessed as reduction in bacterial growth; format: functional
Klebsiella aerogenes [13] = experiment: Bactericidal activity against Enterobacter aerogenes 15-4 assessed as reduction in bacterial growth; format: functional
Escherichia coli [14] = experiment: Bactericidal activity against Escherichia coli ATCC 25922 assessed as reduction in bacterial growth; format: functional
Acinetobacter baumannii [15] = experiment: Bactericidal activity against Carbapenem- resistant Acinetobacter baumannii 17-2 assessed as reduction in bacterial growth in the presence of avibactam; format: functional
Klebsiella pneumoniae [16] = experiment: Bactericidal activity against Carbapenem- resistant Klebsiella pneumoniae KR 15-5 assessed as reduction in bacterial growth in the presence of avibactam; format: functional
Pseudomonas aeruginosa [17] = experiment: Bactericidal activity against Carbapenem- resistant Pseudomonas aeruginosa 17-5 assessed as reduction in bacterial growth in the presence of avibactam; format: functional
Pseudomonas aeruginosa [18] = experiment: Bactericidal activity against Pseudomonas aeruginosa ATCC 27853 assessed as reduction in bacterial growth in the presence of avibactam; format: functional
Pseudomonas aeruginosa [19] = experiment: Antibacterial activity against Carbapenem- resistant Pseudomonas aeruginosa 17-1 assessed as reduction in bacterial growth
Klebsiella pneumoniae [20] = experiment: Antibacterial activity against Carbapenem- resistant Klebsiella pneumoniae KR 15-4 assessed as reduction in bacterial growth
Klebsiella pneumoniae [21] = experiment: Antibacterial activity against Carbapenem- resistant Klebsiella pneumoniae KR 15-5 assessed as reduction in bacterial growth
Escherichia coli [22] = experiment: Antibacterial activity against ESBLs negative Carbapenem--sensitive Escherichia coli 17-20 assessed as reduction in bacterial growth
Klebsiella pneumoniae [23] = experiment: Antibacterial activity against ESBLs negative Carbapenem-sensitive Klebsiella pneumoniae 17-17 assessed as reduction in bacterial growth
Klebsiella pneumoniae [24] = experiment: Antibacterial activity against ESBLs positive Carbapenem-sensitive Klebsiella pneumoniae 17-2 assessed as reduction in bacterial growth in the presence of Avibactam; format: functional
Klebsiella pneumoniae [25] = experiment: Antibacterial activity against ESBLs negative Carbapenem-sensitive Klebsiella pneumoniae 17-19 assessed as reduction in bacterial growth in the presence of Avibactam; format: functional
Escherichia coli [26] = experiment: Antibacterial activity against ESBLs positive Carbapenem-sensitive Escherichia coli 17-14 assessed as reduction in bacterial growth in the presence of Avibactam; format: functional
Escherichia coli [27] = experiment: Antibacterial activity against ESBLs negative Carbapenem-sensitive Escherichia coli 17-4 assessed as reduction in bacterial growth in the presence of Avibactam; format: functional
Escherichia coli [28] = experiment: Antibacterial activity against ESBLs negative Carbapenem-sensitive Escherichia coli 17-9 assessed as reduction in bacterial growth in the presence of Avibactam; format: functional
Enterobacter cloacae [29] = experiment: Antibacterial activity against Enterobacter cloacae 17-4 assessed as reduction in bacterial growth in the presence of Avibactam; format: functional
Enterobacter cloacae [30] = experiment: Antibacterial activity against Enterobacter cloacae 17-6 assessed as reduction in bacterial growth in the presence of Avibactam; format: functional
Klebsiella pneumoniae [31] = experiment: Bactericidal activity against ESBLs negative Carbapenem-sensitive Klebsiella pneumoniae 17-17 assessed as reduction in bacterial growth; format: functional
Klebsiella aerogenes [32] = experiment: Bactericidal activity against Enterobacter aerogenes 17-4 assessed as reduction in bacterial growth; format: functional
Klebsiella pneumoniae [33] = experiment: Ratio of MBC to MIC for ESBLs negative Carbapenem-sensitive Klebsiella pneumoniae 17-17 assessed as reduction in bacterial growth; format: functional
Escherichia coli [34] = experiment: Ratio of MBC to MIC for ESBLs negative Carbapenem-sensitive Escherichia coli 17-7 assessed as reduction in bacterial growth; format: functional
Escherichia coli [35] = experiment: Ratio of MBC to MIC for ESBLs positive Carbapenem-sensitive Escherichia coli 17-3 assessed as reduction in bacterial growth; format: functional
Pseudomonas aeruginosa [36] = experiment: Ratio of MBC to MIC for Pseudomonas aeruginosa ATCC 27853 assessed as reduction in bacterial growth; format: functional
Klebsiella pneumoniae [37] = experiment: Ratio of MBC to MIC for ESBLs negative Carbapenem-sensitive Klebsiella pneumoniae 17-16 assessed as reduction in bacterial growth in the presence of Avibactam; format: functional
Enterobacter cloacae [38] = experiment: Ratio of MBC to MIC for Enterobacter cloacae 17-8 assessed as reduction in bacterial growth in the presence of Avibactam; format: functional
Enterobacter cloacae [39] = experiment: Ratio of MBC to MIC for Enterobacter cloacae 17-10 assessed as reduction in bacterial growth in the presence of Avibactam; format: functional
Klebsiella aerogenes [40] = experiment: Ratio of MBC to MIC for Enterobacter aerogenes 15-3 assessed as reduction in bacterial growth in the presence of Avibactam; format: functional
Klebsiella aerogenes [41] = experiment: Ratio of MBC to MIC for Enterobacter aerogenes 15-4 assessed as reduction in bacterial growth in the presence of Avibactam; format: functional
Pseudomonas aeruginosa [42] = experiment: Ratio of MBC to MIC for carbapenem-sensitive Pseudomonas aeruginosa 17-9 assessed as reduction in bacterial growth in the presence of Avibactam; format: functional
Escherichia coli [43] = experiment: Ratio of MBC to MIC for Escherichia coli NCTC 13353 assessed as reduction in bacterial growth in the presence of Avibactam; format: functional
Pseudomonas aeruginosa [44] = experiment: Ratio of MBC to MIC for Pseudomonas aeruginosa ATCC 27853 assessed as reduction in bacterial growth in the presence of Avibactam; format: functional
Escherichia coli [45] = experiment: Antibacterial activity against ESBLs positive Carbapenem-sensitive Escherichia coli 17-10 assessed as reduction in bacterial growth

Q: Which MIC (Acinetobacter baumannii [1]) does the source give for `CC(C)(O/N=C(\C(=O)N[C@@H]1C(=O)N2C(C(=O)[O-])=C(C[n+]3ccccc3)CS[C@H]12)c1csc(N)n1)C(=O)O` [CEFTAZIDIME] here?
A: Its MIC is over 64 µg/mL.

Q: What about the MIC (Klebsiella pneumoniae [2]) of the same molecule?
A: The MIC was 2 µg/mL.

Q: And the MIC (Klebsiella pneumoniae [3])?
A: The MIC was 2 µg/mL.

Q: And the MIC (Acinetobacter baumannii [4])?
A: Its MIC is 8 µg/mL.

Q: And the MIC (Klebsiella pneumoniae [5])?
A: The MIC was 1 µg/mL.

Q: And the MIC (Klebsiella pneumoniae [6])?
A: The MIC was 4 µg/mL.

Q: And the MIC (Klebsiella pneumoniae [7])?
A: The MIC was 1 µg/mL.

Q: And the MIC (Klebsiella pneumoniae [8])?
A: Its MIC is 0.125 µg/mL.

Q: And the MIC (Escherichia coli [9])?
A: Its MIC is 0.5 µg/mL.

Q: What about the MIC (Pseudomonas aeruginosa [10]) of the same molecule?
A: The MIC was 0.125 µg/mL.

Q: What about the MIC (Pseudomonas aeruginosa [11]) of the same molecule?
A: The MIC was 1 µg/mL.

Q: And the MBC (Pseudomonas aeruginosa [12])?
A: The MBC was 64 µg/mL (≈ 117 µM).

Q: And the MBC (Klebsiella aerogenes [13])?
A: The MBC was 0.5 µg/mL (≈ 0.915 µM).

Q: And the MBC (Escherichia coli [14])?
A: The MBC was 0.5 µg/mL (≈ 0.915 µM).

Q: And the MBC (Acinetobacter baumannii [15])?
A: The MBC was 8 µg/mL.

Q: What about the MBC (Klebsiella pneumoniae [16]) of the same molecule?
A: The MBC was 4 µg/mL.

Q: What about the MBC (Pseudomonas aeruginosa [17]) of the same molecule?
A: Its MBC is over 16 µg/mL.

Q: What about the MBC (Pseudomonas aeruginosa [18]) of the same molecule?
A: Its MBC is 4 µg/mL.

Q: What about the MIC (Pseudomonas aeruginosa [19]) of the same molecule?
A: The MIC was 32 µg/mL (≈ 58.5 µM).

Q: And the MIC (Klebsiella pneumoniae [20])?
A: The MIC was over 64 µg/mL.

Q: What about the MIC (Klebsiella pneumoniae [21]) of the same molecule?
A: Its MIC is over 64 µg/mL.

Q: What about the MIC (Escherichia coli [22]) of the same molecule?
A: Its MIC is over 2 µg/mL.

Q: And the MIC (Klebsiella pneumoniae [23])?
A: Its MIC is 0.125 µg/mL (≈ 0.229 µM).

Q: How did the MIC (Acinetobacter baumannii [1]) turn out when `Nc1nc(/C(=N/OCc2cc(=O)c(O)cn2O)C(=O)N[C@@H]2C(=O)N3C(C(=O)O)=CCS[C@H]23)cs1` was run?
A: Its MIC is over 64 µg/mL.

Q: And the MIC (Klebsiella pneumoniae [2])?
A: The MIC was 1 µg/mL.

Q: What about the MIC (Klebsiella pneumoniae [3]) of the same molecule?
A: Its MIC is 1 µg/mL.

Q: And the MIC (Acinetobacter baumannii [4])?
A: Its MIC is 16 µg/mL.

Q: What about the MIC (Klebsiella pneumoniae [5]) of the same molecule?
A: The MIC was 0.5 µg/mL.

Q: What about the MIC (Klebsiella pneumoniae [6]) of the same molecule?
A: Its MIC is 4 µg/mL.

Q: And the MIC (Klebsiella pneumoniae [7])?
A: Its MIC is 2 µg/mL.

Q: And the MIC (Klebsiella pneumoniae [24])?
A: Its MIC is 0.125 µg/mL.

Q: What about the MIC (Klebsiella pneumoniae [8]) of the same molecule?
A: The MIC was 0.06 µg/mL.

Q: What about the MIC (Klebsiella pneumoniae [25]) of the same molecule?
A: The MIC was at most 0.03 µg/mL.

Q: And the MIC (Escherichia coli [26])?
A: The MIC was 0.25 µg/mL.

Q: And the MIC (Escherichia coli [9])?
A: Its MIC is 0.25 µg/mL.

Q: What about the MIC (Escherichia coli [27]) of the same molecule?
A: Its MIC is 0.125 µg/mL.

Q: What about the MIC (Escherichia coli [28]) of the same molecule?
A: Its MIC is 0.5 µg/mL.

Q: What about the MIC (Enterobacter cloacae [29]) of the same molecule?
A: Its MIC is 0.5 µg/mL.

Q: And the MIC (Enterobacter cloacae [30])?
A: The MIC was 1 µg/mL.

Q: What about the MIC (Pseudomonas aeruginosa [10]) of the same molecule?
A: Its MIC is 2 µg/mL.

Q: And the MIC (Pseudomonas aeruginosa [11])?
A: Its MIC is 2 µg/mL.

Q: What about the MBC (Pseudomonas aeruginosa [12]) of the same molecule?
A: Its MBC is 64 µg/mL (≈ 126 µM).

Q: What about the MBC (Klebsiella pneumoniae [31]) of the same molecule?
A: The MBC was 0.25 µg/mL (≈ 0.492 µM).

Q: What about the MBC (Klebsiella aerogenes [32]) of the same molecule?
A: The MBC was 16 µg/mL (≈ 31.5 µM).

Q: What about the MBC (Klebsiella aerogenes [13]) of the same molecule?
A: Its MBC is 4 µg/mL (≈ 7.87 µM).

Q: What about the MBC (Escherichia coli [14]) of the same molecule?
A: Its MBC is over 8 µg/mL.

Q: And the Ratio (Klebsiella pneumoniae [33])?
A: Its Ratio is 2.

Q: And the Ratio (Escherichia coli [34])?
A: Its Ratio is 2.

Q: What about the Ratio (Escherichia coli [35]) of the same molecule?
A: Its Ratio is 1.

Q: And the Ratio (Pseudomonas aeruginosa [36])?
A: The Ratio was 16.

Q: What about the MBC (Acinetobacter baumannii [15]) of the same molecule?
A: Its MBC is 16 µg/mL.

Q: And the MBC (Klebsiella pneumoniae [16])?
A: The MBC was 4 µg/mL.

Q: And the MBC (Pseudomonas aeruginosa [17])?
A: Its MBC is 32 µg/mL.

Q: And the MBC (Pseudomonas aeruginosa [18])?
A: Its MBC is 4 µg/mL.

Q: What about the Ratio (Klebsiella pneumoniae [37]) of the same molecule?
A: The Ratio was 1.

Q: What about the Ratio (Enterobacter cloacae [38]) of the same molecule?
A: The Ratio was 1.

Q: And the Ratio (Enterobacter cloacae [39])?
A: Its Ratio is 2.

Q: And the Ratio (Klebsiella aerogenes [40])?
A: The Ratio was 1.

Q: What about the Ratio (Klebsiella aerogenes [41]) of the same molecule?
A: Its Ratio is 2.

Q: What about the Ratio (Pseudomonas aeruginosa [42]) of the same molecule?
A: The Ratio was 2.

Q: And the Ratio (Escherichia coli [43])?
A: The Ratio was 1.

Q: What about the Ratio (Pseudomonas aeruginosa [44]) of the same molecule?
A: Its Ratio is 4.

Q: And the MIC (Klebsiella pneumoniae [20])?
A: Its MIC is over 64 µg/mL.

Q: What about the MIC (Klebsiella pneumoniae [21]) of the same molecule?
A: Its MIC is over 64 µg/mL.

Q: What about the MIC (Escherichia coli [45]) of the same molecule?
A: Its MIC is 4 µg/mL (≈ 7.87 µM).

Q: What about the MIC (Escherichia coli [22]) of the same molecule?
A: Its MIC is over 2 µg/mL.
